From ChEMBL document CHEMBL1147124, “Antigiardial activity of triterpenoids from root bark of Hippocratea excelsa” (J Nat Prod, 2007)
pIC50: −log10 of the molar value.

tested on: Giardia intestinalis; assay: Antiprotozoal activity against Giardia intestinalis IMSS:0696:1 trophozoites after 48 hrs; assay type: functional, organism-based; details: Giardia duodenalis

Row | Structure (SMILES) | pIC50
1 | C[C@H]1C(=O)CCC2[C@]3(C)CC[C@@]4(C)C5CC(C)(C)[C@H](O)C[C@]5(C)CC[C@]4(C)C3CC[C@@]21C (stereo partly specified) | 4.70
2 | CC1=C(O)C(=O)C=C2C1=CC=C1[C@@]2(C)CC[C@@]2(C)[C@@H]3C[C@@H](C)C(=O)C[C@]3(C)CC[C@]12C [TINGENONE] | 6.13
3 | COC(=O)[C@]1(C)CC[C@]2(C)CC[C@]3(C)C4=CC=C5C(=CC(=O)C(O)=C5C)[C@]4(C)CC[C@@]3(C)[C@@H]2C1 [PRISTIMERIN] | 6.96

Results, then the compound that gave them:

Row | pIC50 | Structure (SMILES)
4 | 4.95 | COC(=O)[C@]1(C)CC[C@]2(C)CC[C@]3(C)C4=CC=C5C(=CC(=O)[C@]6(O)Oc7cc8c(cc7O[C@]56C)C(=O)C=C5[C@@]8(C)CC[C@@]6(C)[C@@H]7C[C@](C)(C(=O)OC)CC[C@]7(C)CC[C@]56C)[C@]4(C)CC[C@@]3(C)[C@@H]2C1 [XUXARINE EBETA]
5 | 4.56 | CC1(C)C[C@H]2C3=CC[C@@H]4[C@@]5(C)CCC(=O)C(C)(C)[C@@H]5CC[C@@]4(C)[C@]3(C)CC[C@@]2(C)C[C@@H]1O
6 | 4.65 | COC(=O)/C=C1\C(C(C)=O)=CC=C2[C@]3(C)CC[C@@]4(C)CC[C@@](C)(C(=O)OC)CC4[C@@]3(C)CC[C@]21C (stereo partly specified) [DZUNUNCANONE]
